Measurements published in patent publication US20230416271A1, “HETEROARYLQUINAZOLINE COMPOUNDS AS PROTEIN KINASE INHIBITORS” (CHENGDU CYNOGEN BIO-PHARMACEUTICAL TECHNOLOGY CO., LTD., priority 2020, published 2023).

What was measured:
Assay type in all cases: biochemical
CDK2/Cyclin A2 = CDK2/Cyclin A2 (Homo sapiens (Human), UniProt P24941); assay: Kinase activity assay (Caliper Mobility Shift Assay), CDK2/Cyclin A2
Description: (§1) The inhibitory effect of compounds against the kinase CDK4/cyclin D3 was detected by Caliper Mobility Shift Assay method. The final concentration of the compounds to be tested was set at 10 concentrations starting from 1 uM by 3-fold serial dilution. 5 μL of compounds at 5-fold final concentration and 10 μL of CDK4/cyclin D3 kinase solution at a final concentration of 10 nM was added to a 384-well reaction plate, respectively. The plate was pre-incubated for 10 min at room temperature (with negative control wells containing 10 uL of kinase buffer and 5 uL of 5% DMSO; positive control wells containing 10 μL of kinase solution and 5 uL of 5% DMSO). The reaction was initiated by adding 10 μL of ATP at a final concentration of 250 uM and the corresponding substrate peptide mixture at room temperature for 150 minutes. 30 uL of stop detection solution containing EDTA was added to stop the kinase reaction. Caliper EZ Reader was used to read the conversion rate. Conversion inhibition rate %=(average conversion rate of positive control %−conversion rate of sample %)/(average conversion rate of positive control %−average conversion rate of negative control %). wherein: negative control wells represent the conversion rate readings of wells without enzymatic activity; positive control wells represent conversion readings for wells with no compound inhibition. The log(inhibitor) vs. response—Variable slope of the analysis software GraphPad Prism 5 was used with log concentration value as the X-axis and the percent inhibition rate as the Y-axis to fit the dose-response curve, the IC50 value of each compound on the enzyme activity was thus obtained. Calculation formula: Y=Bottom+(Top−Bottom)/(1+10^((Log IC50−X)*HillSlope)).
(§2) The IC50 values and inhibitory activities of compounds of the present disclosure on CDK6/Cyclin D3, CDK2/Cyclin A2, and CDK9/cyclin T1 were tested in a similar manner.

CDK4/cyclin D3 = CDK4/cyclin D3 (Homo sapiens (Human), UniProt P11802); assay: Kinase activity assay (Caliper Mobility Shift Assay), CDK4/cyclin D3; conditions: 10 nM kinase, 250 uM ATP
Chain of CDK4/cyclin D3 (P11802 whole entry, species assumed): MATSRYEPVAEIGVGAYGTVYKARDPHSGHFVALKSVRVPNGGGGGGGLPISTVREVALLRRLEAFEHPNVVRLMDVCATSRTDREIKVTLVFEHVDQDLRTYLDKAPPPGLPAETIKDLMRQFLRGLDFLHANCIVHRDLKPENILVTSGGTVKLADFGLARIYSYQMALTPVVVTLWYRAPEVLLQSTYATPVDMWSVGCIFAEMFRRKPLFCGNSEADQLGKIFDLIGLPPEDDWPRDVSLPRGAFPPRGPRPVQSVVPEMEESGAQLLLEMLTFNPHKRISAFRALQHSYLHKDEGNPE
Chain of CDK4/cyclin D3 (P30281 whole entry partner, species assumed): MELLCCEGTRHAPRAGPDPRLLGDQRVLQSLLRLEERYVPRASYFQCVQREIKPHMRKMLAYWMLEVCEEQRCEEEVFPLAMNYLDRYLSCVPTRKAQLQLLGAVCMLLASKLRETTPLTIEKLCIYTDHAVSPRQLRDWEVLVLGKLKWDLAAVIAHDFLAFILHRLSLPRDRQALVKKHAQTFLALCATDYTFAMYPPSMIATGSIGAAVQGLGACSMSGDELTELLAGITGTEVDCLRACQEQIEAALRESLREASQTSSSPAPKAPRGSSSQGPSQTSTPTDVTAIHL
Description: as §1

CDK6/Cyclin D3 = CDK6/Cyclin D3 (Homo sapiens (Human), UniProt Q00534); assay: Kinase activity assay (Caliper Mobility Shift Assay), CDK6/Cyclin D3
Chain of CDK6/Cyclin D3 (Q00534 whole entry, species assumed): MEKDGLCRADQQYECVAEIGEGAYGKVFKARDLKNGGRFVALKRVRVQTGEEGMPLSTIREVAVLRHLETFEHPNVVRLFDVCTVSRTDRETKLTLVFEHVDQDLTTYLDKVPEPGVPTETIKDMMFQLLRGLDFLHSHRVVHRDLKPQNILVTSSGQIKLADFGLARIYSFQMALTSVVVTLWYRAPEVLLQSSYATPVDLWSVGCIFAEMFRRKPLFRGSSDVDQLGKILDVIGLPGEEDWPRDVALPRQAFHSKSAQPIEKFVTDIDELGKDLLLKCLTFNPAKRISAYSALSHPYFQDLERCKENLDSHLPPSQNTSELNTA
Chain of CDK6/Cyclin D3 (P30281 whole entry partner, species assumed): as the sequence (P30281 whole entry partner, species assumed) above
Description: as §1, §2

| Compound | IC50 (CDK2/Cyclin A2) [nM] | IC50 (CDK4/cyclin D3) [nM] | IC50 (CDK6/Cyclin D3) [nM] |
| --- | --- | --- | --- |
| CC(C)c1noc2ccc3cnc(N[C@H]4CC[C@H](Nc5ncccn5)CC4)nc3c12 [I.3, (1R,4R)-N^1-(9-isopropylisoxazolo[5,4-h]quinazolin-2-yl)-N^4-(pyrimidin-2-yl)cyclohexane-1,4-diamine] | 258 | 26 | 38 |
| CC(C)c1noc2ccc3cnc(NC4CCNCC4)nc3c12 [I.4, 9-isopropyl-N-(piperidin-4-yl)isoxazolo[5,4-h]quinazolin-2-amine] | 249 | 47 | 68 |
| CC(C)c1noc2c(Cl)cc3cnc(NC4CCN(S(C)(=O)=O)CC4)nc3c12 [I.7, 6-chloro-9-isopropyl-N-(1-(methylsulfonyl)piperidin-4-yl)isoxazolo[5,4-h]quinazolin-2-amine] | 8 | 7 | 3 |
| CC(C)c1noc2c(Br)cc3cnc(NC4CCN(S(C)(=O)=O)CC4)nc3c12 [I.8, 6-bromo-9-isopropyl-N-(1-(methylsulfonyl)piperidin-4-yl)isoxazolo[5,4-h]quinazolin-2-amine] | 9 | 6 | 3 |
| CC(C)c1noc2c(C(F)F)cc3cnc(NC4CCN(S(C)(=O)=O)CC4)nc3c12 [I.9, 6-(difluoromethyl)-9-isopropyl-N-(1-(methylsulfonyl)piperidin-4-yl)isoxazolo[5,4-h]quinazolin-2-amine] | 5 | 6 | 7 |
| CC(C)c1noc2c(CO)cc3cnc(NC4CCN(S(C)(=O)=O)CC4)nc3c12 [I.10, (9-isopropyl-2-((1-(methylsulfonyl)piperidin-4-yl)amino)isoxazolo[5,4-h]quinazolin-6-yl)methanol] | 49 | 72 | 71 |

Molecules with a lower IC50 (CDK2/Cyclin A2), results first:

| IC50 (CDK2/Cyclin A2) [nM] | IC50 (CDK4/cyclin D3) [nM] | IC50 (CDK6/Cyclin D3) [nM] | Compound |
| --- | --- | --- | --- |
| 2 | 5 | 8 | C[C@@]1(O)CCC[C@H]1c1noc2c(C(F)F)cc3cnc(NC4CCN(S(C)(=O)=O)CC4)nc3c12 [I.14, (1R,2S)-2-(6-(difluoromethyl)-2-((1-(methylsulfonyl)piperidin-4-yl)amino)isoxazolo[5,4-h]quinazolin-9-yl)-1-methylcyclopentan-1-ol] |
| 2 | 10 | 8 | CC(C)c1noc2c1-c1nc(NC3CCN(S(C)(=O)=O)CC3)ncc1CC2 [I.15, 9-isopropyl-N-(1-(methylsulfonyl)piperidin-4-yl)-5,6-dihydroisoxazolo[5,4-h]quinazolin-2-amine] |
| 1 | 10 | 24 | CC(C)c1noc2ccc3cnc(NC4CCN(S(C)(=O)=O)CC4)nc3c12 [I.5, 9-isopropyl-N-(1-(methylsulfonyl)piperidin-4-yl)isoxazolo[5,4-h]quinazolin-2-amine] |
| 1 | 5 | 12 | CC(C)c1noc2c(F)cc3cnc(NC4CCN(S(C)(=O)=O)CC4)nc3c12 [I.6, 6-fluoro-9-isopropyl-N-(1-(methylsulfonyl)piperidin-4-yl)isoxazolo[5,4-h]quinazolin-2-amine] |
| 1 | 10 | 24 | [2H]c1cc2cnc(NC3CCN(S(C)(=O)=O)CC3)nc2c2c(C(C)C)noc12 [I.11, 9-isopropyl-N-(1-(methylsulfonyl)piperidin-4-yl)isoxazolo[5,4-h]quinazolin-6-d-2-amine] |
| 1 | 5 | 13 | Cc1cc2cnc(NC3CCN(S(C)(=O)=O)CC3)nc2c2c(C(C)C)noc12 [I.12, 9-isopropyl-6-methyl-N-(1-(methylsulfonyl)piperidin-4-yl)isoxazolo[5,4-h]quinazolin-2-amine] |
| 1 | 3 | 6 | C[C@@]1(O)CCC[C@H]1c1noc2ccc3cnc(NC4CCN(S(C)(=O)=O)CC4)nc3c12 [I.13, (1R,2S)-1-methyl-2-(2-((1-(methylsulfonyl)piperidin-4-yl)amino)isoxazolo[5,4-h]quinazolin-9-yl)cyclopentan-1-ol] |
